The record followed here is PubChem BioAssay (NCI).

Several values for one entry are separate records, joined by “and”; a condition that tells them apart may be missing. Equal values may be shown once.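 Five compound concentrations were applied to cells in 96-well plates for 48 hours; endpoints were derived by simple linear interpolation of the resulting dose-response curve. Here, GI50 denotes the concentration required for 50% inhibition of growth. TGI marks complete inhibition of growth.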 Bounds are passed on as bounds.

Some test systems named below: UO-31 renal; NCI-H460 lung; OVCAR-8 ovarian; RXF 393 renal; HCT-116 colon; U251 CNS; SK-OV-3 ovarian; UACC-257 melanoma; CAKI-1 renal; SN12C renal.
What all share (experiment): NCI-60 cell line screen, 48 h

For `CN1CCN(CCCNc2nc3ccc(Oc4ccc(NC(=O)Nc5cc(C(F)(F)F)ccc5F)cc4)cc3[nH]2)CC1`, the GI50 was above 25 µM with UO-31 renal; 4.37 µM in the assay on NCI-H460 lung; 5.27 µM with OVCAR-8 ovarian; 4.07 µM in the assay on RXF 393 renal; 4.28 µM in the assay on HCT-116 colon; 3.86 µM with U251 CNS. For the same compound, the GI50 in the assay with SK-OV-3 ovarian is 4.36 µM; with UACC-257 melanoma it was 4.02 µM; in the assay with CAKI-1 renal it was above 25 µM; in the assay with SN12C renal, 4.77 µM. Besides, the TGI is above 25 µM in the assay with UO-31 renal; 8.4 µM in the assay on NCI-H460 lung; 13.5 µM with OVCAR-8 ovarian; 9.17 µM in the assay on RXF 393 renal; 7.99 µM in the assay on HCT-116 colon; 7.38 µM in the assay with U251 CNS. Further, the TGI was 10.3 µM in the assay with SK-OV-3 ovarian, 7.93 µM with UACC-257 melanoma, above 25 µM in the assay with CAKI-1 renal and 11.2 µM in the assay with SN12C renal.
With `c1ccc(Sc2ccc(Cc3nc4cc5ccccc5cc4[nH]3)cc2)cc1`, the GI50 in the assay with UO-31 renal is 20.7 µM; with NCI-H460 lung, 0.21 µM; in the assay on OVCAR-8 ovarian it was 7.46 µM; in the assay with RXF 393 renal it was 21.2 µM; in the assay on HCT-116 colon, 2.98 µM; with U251 CNS, 3.68 µM. For the same compound, the GI50 was 3.27 µM in the assay on SK-OV-3 ovarian, 5.33 µM in the assay with UACC-257 melanoma, 11.7 µM with CAKI-1 renal and 16.8 µM with SN12C renal. Moreover, the TGI in the assay on UO-31 renal is above 100 µM; in the assay on NCI-H460 lung, above 100 µM; in the assay on OVCAR-8 ovarian it was above 92.1 µM; with RXF 393 renal, above 100 µM; in the assay with HCT-116 colon, 20.7 µM; with U251 CNS, above 57.9 µM. Moreover, the TGI in the assay with SK-OV-3 ovarian was above 24.8 µM; in the assay on UACC-257 melanoma, 29.1 µM; with CAKI-1 renal it was 48.8 µM; with SN12C renal it was 76.5 µM.
Consider `CC1=CC(=O)C=CC1=O`, for which the GI50 with UO-31 renal was 12.7 µM and 4.8 µM; in the assay with NCI-H460 lung, 32.8 µM and 22.3 µM; in the assay on OVCAR-8 ovarian, 17.7 µM; with RXF 393 renal it was 16.8 µM and 12.1 µM; in the assay on HCT-116 colon it was 14.8 µM and 2.97 µM; in the assay with U251 CNS, 57.4 µM and 15.4 µM. Moreover, the GI50 in the assay with SK-OV-3 ovarian was 37.5 µM and 25.5 µM; in the assay on UACC-257 melanoma, 35.9 µM and 17.4 µM; with CAKI-1 renal, 15.1 µM and 15.3 µM; in the assay with SN12C renal, 28.7 µM. Moreover, the TGI in the assay on UO-31 renal is 26 µM and 17.6 µM; in the assay on NCI-H460 lung it was 53.4 µM; in the assay with OVCAR-8 ovarian, 41.4 µM; in the assay on RXF 393 renal it was 31.5 µM and 27.4 µM; in the assay on HCT-116 colon, 29.8 µM; in the assay on U251 CNS, 28.9 µM. Moreover, the TGI was 93.8 µM in the assay with SK-OV-3 ovarian; 33.9 µM in the assay with UACC-257 melanoma; 28.4 µM and 29.8 µM in the assay with CAKI-1 renal.
Regarding `CCOC(=O)CC(C)C1(C(=O)OCC)CCCCC1=O` (stereo unspecified), the TGI in the assay on UO-31 renal, with NCI-H460 lung, with OVCAR-8 ovarian, with RXF 393 renal, in the assay on HCT-116 colon and in the assay with U251 CNS was above 100 µM each time. Besides, the TGI in the assay with SK-OV-3 ovarian, with UACC-257 melanoma, in the assay with CAKI-1 renal and in the assay with SN12C renal was above 100 µM throughout.
On to `COC(=O)Nc1nc2ccc(C3(c4ccc(F)cc4)OCCO3)cc2[nH]1`, for which the GI50 with UO-31 renal is 3.39 µM; in the assay with NCI-H460 lung it was 0.344 µM; in the assay on OVCAR-8 ovarian it was 0.527 µM; in the assay on RXF 393 renal it was 0.211 µM; with HCT-116 colon, 0.409 µM; with U251 CNS it was 0.398 µM. Moreover, the GI50 was 0.587 µM with SK-OV-3 ovarian, 1.28 µM with UACC-257 melanoma, 0.462 µM in the assay on CAKI-1 renal and 0.584 µM with SN12C renal. The TGI is above 100 µM in the assay with UO-31 renal; above 36.8 µM with NCI-H460 lung; above 100 µM in the assay with OVCAR-8 ovarian; 0.654 µM in the assay with RXF 393 renal; above 49.6 µM in the assay with HCT-116 colon; above 100 µM with U251 CNS. Besides, the TGI with SK-OV-3 ovarian, with UACC-257 melanoma, with CAKI-1 renal and in the assay with SN12C renal was above 100 µM throughout.
With `CCCCNC1CCCCC[C@H]1O` (stereo partly specified), the TGI in the assay with UO-31 renal, in the assay on NCI-H460 lung, in the assay on OVCAR-8 ovarian, in the assay with RXF 393 renal, in the assay on HCT-116 colon and in the assay with U251 CNS was above 100 µM throughout. In addition, the TGI in the assay with SK-OV-3 ovarian, in the assay with UACC-257 melanoma, with CAKI-1 renal and with SN12C renal was above 100 µM each time.
Consider `COc1cc(/C=C/c2ccc(OC)c(O)c2)cc(OC)c1`, for which the TGI with UO-31 renal turned out to be 41.9 µM; in the assay with NCI-H460 lung, 14.1 µM; in the assay on OVCAR-8 ovarian it was 36.1 µM; in the assay on RXF 393 renal, 3.88 µM; in the assay with HCT-116 colon, 12.3 µM; in the assay with U251 CNS, 15 µM. In addition, the TGI in the assay with SK-OV-3 ovarian amounted to 86.6 µM; in the assay on UACC-257 melanoma it was 24.9 µM; in the assay with CAKI-1 renal, 72.8 µM; with SN12C renal, 30.3 µM.
For `COC(=O)C(Cc1nc2ccccc2[nH]c1=O)C(NO)C(=O)Nc1c(Cl)cc([N+](=O)[O-])cc1Cl` (stereo unspecified), the TGI in the assay with UO-31 renal was above 100 µM; in the assay with NCI-H460 lung it was 44.7 µM; in the assay on OVCAR-8 ovarian it was above 100 µM; in the assay with RXF 393 renal, 50.2 µM; in the assay on HCT-116 colon, 47.9 µM; in the assay with U251 CNS, 99 µM. The TGI in the assay with SK-OV-3 ovarian, in the assay on UACC-257 melanoma, in the assay on CAKI-1 renal and with SN12C renal was above 100 µM throughout.
As to `CC(=O)O[C@H]1CCC2[C@@H]3CC[C@]4(C)CC(=O)C=C[C@]4(C)C3CC[C@@]21C` (stereo partly specified), the TGI in the assay on UO-31 renal is above 100 µM; with NCI-H460 lung, 32 µM; with OVCAR-8 ovarian, 34.2 µM; in the assay with RXF 393 renal it was 67.7 µM; with HCT-116 colon it was 32.1 µM; with U251 CNS it was 33.1 µM. Moreover, the TGI in the assay on SK-OV-3 ovarian is above 100 µM; in the assay on UACC-257 melanoma, 43.9 µM; in the assay with CAKI-1 renal it was above 100 µM; in the assay with SN12C renal it was 55.9 µM.
Turning to `CCCCCCCCCCCCCCCC(=O)OCC(C[As](=O)(O)O)OC(=O)CCCCCCCCCCCCCCC` (stereo unspecified), the TGI in the assay on UO-31 renal, in the assay with NCI-H460 lung, with OVCAR-8 ovarian, in the assay with RXF 393 renal, in the assay on HCT-116 colon and with U251 CNS was above 100 µM throughout. Moreover, the TGI in the assay on SK-OV-3 ovarian, in the assay with UACC-257 melanoma, in the assay on CAKI-1 renal and in the assay on SN12C renal was above 100 µM throughout.
On to `O=C(Nc1n[nH]c2cc(-c3ccccc3)ccc12)C1CC1`, for which the GI50 is 16.9 µM with UO-31 renal; 7.15 µM with NCI-H460 lung; 14.5 µM in the assay with OVCAR-8 ovarian; 7.91 µM in the assay with RXF 393 renal; 6.56 µM with HCT-116 colon; 13.6 µM in the assay on U251 CNS. Also, the GI50 was 14.2 µM in the assay with SK-OV-3 ovarian, above 25 µM in the assay with UACC-257 melanoma, 9.36 µM in the assay on CAKI-1 renal and 16.3 µM with SN12C renal. Moreover, the TGI in the assay on UO-31 renal, with NCI-H460 lung, in the assay on OVCAR-8 ovarian, in the assay with RXF 393 renal, with HCT-116 colon and in the assay on U251 CNS was above 25 µM each time. Further, the TGI in the assay with SK-OV-3 ovarian, in the assay on UACC-257 melanoma, in the assay with CAKI-1 renal and in the assay with SN12C renal was above 25 µM throughout.
On to `O=S(=O)(c1ccc(NC(=S)NC23CC4CC(CC(C4)C2)C3)cc1)N1CCCCC1`, for which the GI50 in the assay on UO-31 renal was 2.82 µM; with NCI-H460 lung, 3.35 µM; in the assay with OVCAR-8 ovarian, 3.22 µM; with RXF 393 renal it was 2.37 µM; in the assay with HCT-116 colon, 3.34 µM; with U251 CNS, 2.92 µM. Moreover, the GI50 is 2.98 µM in the assay on SK-OV-3 ovarian, 2.49 µM in the assay on UACC-257 melanoma, 3.06 µM in the assay with CAKI-1 renal and 3.23 µM with SN12C renal. Moreover, the TGI in the assay with UO-31 renal is above 100 µM; in the assay on NCI-H460 lung it was above 100 µM; in the assay with OVCAR-8 ovarian it was above 100 µM; in the assay on RXF 393 renal, 6.6 µM; in the assay with HCT-116 colon it was above 100 µM; with U251 CNS, 13.3 µM. Also, the TGI in the assay with SK-OV-3 ovarian is 9.26 µM; with UACC-257 melanoma, 6.8 µM; in the assay with CAKI-1 renal, above 100 µM; in the assay with SN12C renal it was above 100 µM.
As to `COCC[C@H]1CCC/C=C/[C@@H]2C[C@H](O)C[C@H]2[C@H](O)/C=C/C(=O)O1`, the GI50 is 0.0563 µM in the assay on UO-31 renal; 0.39 µM in the assay with NCI-H460 lung; 0.0483 µM in the assay with OVCAR-8 ovarian; 0.0219 µM with RXF 393 renal; 0.149 µM with HCT-116 colon; 0.166 µM in the assay with U251 CNS. In addition, the GI50 with SK-OV-3 ovarian was 0.0725 µM; with UACC-257 melanoma, 0.035 µM; in the assay with CAKI-1 renal, 0.36 µM; in the assay with SN12C renal, 0.274 µM. Besides, the TGI with NCI-H460 lung is above 100 µM; in the assay on OVCAR-8 ovarian, above 100 µM; in the assay on RXF 393 renal it was 0.0539 µM; with HCT-116 colon, 0.332 µM; with U251 CNS, above 100 µM; in the assay on SK-OV-3 ovarian, above 100 µM. The compound further came in with a TGI with SN12C renal above 100 µM.
With `Cc1cc(N(CCC#N)CCC#N)ccc1/C=C(\NC(=O)/C=C/c1ccccc1)C(N)=O`, the TGI in the assay with UO-31 renal is above 100 µM; in the assay with NCI-H460 lung it was above 100 µM; in the assay with OVCAR-8 ovarian, above 100 µM; with RXF 393 renal, 21 µM; with HCT-116 colon it was above 100 µM; in the assay on U251 CNS, above 100 µM. Further, the TGI in the assay on SK-OV-3 ovarian, in the assay on UACC-257 melanoma, in the assay on CAKI-1 renal and in the assay on SN12C renal was above 100 µM throughout.
